Measurements: patent publication US7655665B2, “Nitromethylene derivatives and their use” (East China University of Science and Technology, priority 2004, dated 2010)

How the values were obtained:
Aphis craccivoral = test: Insecticidal activity against Aphis craccivoral by immersing (dipping aphids on bean sprout); format: in vivo; details: 500 ppm (500 ug/mL dilution), dipped 5 seconds, killed aphis counted after 24 hours, 23° C.
Procedure, shortened: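 Wingless adult A. craccivora feeding on bean sprouts dipped 5 seconds in compound at 500 ug/mL (0.2 mL/L Triton X-100 aqueous), then held at 23 °C. Mortality counted after 24 hours, three replicates, vehicle-only control.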

Nilaparvata lugens = test: Insecticidal activity against Nilaparvata lugens (planthopper) by spraying; format: in vivo; details: 500 ppm, spraying 2 ml per tumbler, killed counted after 24 hours
Procedure, shortened: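 Ten planthoppers per tumbler were introduced 6 hours before spraying with 2 ml of test solution, with clean water as blank control. Each treatment had 3 replicates, and three series were run. Mortality was counted after 24 hours.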

Compound | mortality (%) (500 ppm) Aphis (Aphis craccivoral) | mortality (%) (500 ppm) Nilaparvata-lugens (Nilaparvata lugens)
CC(C)N=C1CCC([N+](=O)[O-])=C2N(Cc3ccc(Cl)nc3)CCCN12 [Compound 206] | 56 | 98
CCCCN=C1CCC([N+](=O)[O-])=C2N(Cc3ccc(Cl)nc3)CCCN12 [Compound 207] | 14 | 45
CCCCCN=C1CCC([N+](=O)[O-])=C2N(Cc3ccc(Cl)nc3)CCCN12 [Compound 208] | 35 | 67
CC(C)CCN=C1CCC([N+](=O)[O-])=C2N(Cc3ccc(Cl)nc3)CCCN12 [Compound 209] | 23 | 26
CCCC(C)N=C1CCC([N+](=O)[O-])=C2N(Cc3ccc(Cl)nc3)CCCN12 (centres unmarked) [Compound 210] | 7 | 77
CC(C)(C)CN=C1CCC([N+](=O)[O-])=C2N(Cc3ccc(Cl)nc3)CCCN12 [Compound 211] | 34 | 56
N=C1CCC([N+](=O)[O-])=C2N(Cc3cnc(Cl)s3)CCN12 [Compound 212] | 34 | 23
CN=C1CCC([N+](=O)[O-])=C2N(Cc3cnc(Cl)s3)CCN12 [Compound 213] | 32 | 78
CCN=C1CCC([N+](=O)[O-])=C2N(Cc3cnc(Cl)s3)CCN12 [Compound 214] | 55 | 90
O=[N+]([O-])C1=C2N(Cc3cnc(Cl)s3)CCN2C(=NCCCl)CC1 [Compound 215] | 9 | 97
CCCCN=C1CCC([N+](=O)[O-])=C2N(Cc3cnc(Cl)s3)CCN12 [Compound 216] | 66 | 98
CCCN=C1CCC([N+](=O)[O-])=C2N(Cc3cnc(Cl)s3)CCN12 [Compound 217] | 23 | 100
CCCCCN=C1CCC([N+](=O)[O-])=C2N(Cc3cnc(Cl)s3)CCN12 [Compound 218] | 45 | 67
CC(C)N=C1CCC([N+](=O)[O-])=C2N(Cc3cnc(Cl)s3)CCN12 [Compound 219] | 34 | 45
N=C1CCC([N+](=O)[O-])=C2N(Cc3cnc(Cl)s3)CCCN12 [Compound 220] | 16 | 56
CN=C1CCC([N+](=O)[O-])=C2N(Cc3cnc(Cl)s3)CCCN12 [Compound 221] | 4 | 67
CCN=C1CCC([N+](=O)[O-])=C2N(Cc3cnc(Cl)s3)CCCN12 [Compound 222] | 4 | 89
O=[N+]([O-])C1=C2N(Cc3cnc(Cl)s3)CCCN2C(=NCCCl)CC1 [Compound 223] | 5 | 76
CCCCN=C1CCC([N+](=O)[O-])=C2N(Cc3cnc(Cl)s3)CCCN12 [Compound 224] | 45 | 66
CCCN=C1CCC([N+](=O)[O-])=C2N(Cc3cnc(Cl)s3)CCCN12 [Compound 225] | 35 | 78
CCCCCN=C1CCC([N+](=O)[O-])=C2N(Cc3cnc(Cl)s3)CCCN12 [Compound 226] | 22 | 57
CC(C)N=C1CCC([N+](=O)[O-])=C2N(Cc3cnc(Cl)s3)CCCN12 [Compound 227] | 100 | 100
